From ChEMBL document CHEMBL1158837, “Cyclohexadepsipeptides from the insect pathogenic fungus Hirsutella nivea BCC 2594” (J Nat Prod, 2005)
Values after ≈ are worked out from the molar mass of the structure shown. Active and inactive are the calls of the source. The calls are words filed in the database; no cut-off is given here. Square brackets hold non-standard residues; d marks the D form. Peptide text beside a SMILES is read from it. Hica(2S) = CC(C)C[C@H](O)C(=O)O; NMeL = CN[C@@H](CC(C)C)C(=O)O; Hiv = CC(C)[C@H](O)C(=O)O

Columns and labels:
Plasmodium falciparum [1] = assay: Antimalarial activity against multidrug-resistant Plasmodium falciparum K1 at 20 ug/ml after 42 hrs as reduced [3H]hypoxanthine uptake; assay type: functional, organism-based
Vero = assay: Cytotoxicity against african green monkey Vero cells at 50 ug/ml by SRB assay; assay type: cell-based; settings: chlorocebus sabaeus
[2] = test system: Mycobacterium tuberculosis; assay: Antitubercular activity against Mycobacterium tuberculosis H37Ra after 4 days by microplate alamar blue assay; assay type: functional; settings: 96 h
Plasmodium falciparum [3] = assay: Antimalarial activity against multidrug-resistant Plasmodium falciparum K1 after 42 hrs by [3H]hypoxanthine uptake; assay type: functional, organism-based

Row | SMILES | Activity (Plasmodium falciparum [1]) | Activity (Vero) | MIC [2] | IC50 (Plasmodium falciparum [3])
1 | CC(C)C[C@@H]1OC(=O)[C@H](C(C)C)OC(=O)[C@H](CO)NC(=O)[C@H]([C@@H](C)O)NC(=O)[C@H](CC(C)C)N(C)C(=O)[C@H](Cc2ccccc2)NC1=O [HIRSUTATIN A] (HELM PEPTIDE1{F.[meL].T.S.[CC(C)[C@H](O[*:1])C(=O)[*:2]].[CC(C)C[C@H](O[*:1])C(=O)[*:2]]}$PEPTIDE1,PEPTIDE1,1:R1-6:R2$$$V2.0) | inactive | Non-toxic | 50 µg/mL (≈ 73.9 µM) | 
2 | COc1ccc(C[C@@H]2NC(=O)[C@H](CC(C)C)OC(=O)[C@H](C(C)C)OC(=O)[C@H](CO)NC(=O)[C@H]([C@@H](C)O)NC(=O)[C@H](CC(C)C)N(C)C2=O)cc1 [HIRSUTATIN B] (cyclo([Hica(2S)]Y(Me)[NMeL]TS[Hiv])) |  | Non-toxic | 50 µg/mL (≈ 70.7 µM) | 5.8 µg/mL (≈ 8.21 µM)
